From patent publication US20120093917A1, “METNASE AND INTNASE INHIBITORS AND THEIR USE IN TREATING CANCER” (priority 2009, published 2012)

Tests used:
[1] = tested on: human Pancreatic cancer cell line BXPC3; assay: Colony formation assay, pancreatic cancer cell line BXPC3; format: cell-based; details: for potentiation of gemcitabine (surviving colonies) / activity on their own against the pancreatic cancer cells (surviving colonies): BXPC3, FIG. 16; for potentiation of gemcitabine (surviving colonies): 2 μM inhibitor + 0.3 μg/ml gemcitabine, 18 hrs, normalized to gemcitabine; for activity on their own against the pancreatic cancer cells (surviving colonies): 2 μM inhibitor, 18 hrs treatment, colonies after 14 days, normalized to DMSO; for BxPC3 Pancreatic activity: summary table / FIG. 34
Method: (§1) The human Pancreatic cancer cell line BXPC3 was plated (4000 cells per plate with a ˜10% plating efficiency) in 10 cm dishes, using 10 ml of RPMI media (always with 10% FBS) per plate, and placed in a […] incubator (5% CO2) for 24 hrs. After 24 hrs, each plate was treated with one or a combination of the following agents: DMSO (0.2% in solution), 0.3 μg/ml of gemcitabine (dissolved in 1×PBS), and/or 2 μM of each Metnase/Intnase inhibitor (dissolved in DMSO). When the DMSO, gemcitabine, and/or inhibitors were added, the plates were swirled several times to assure mixing. After the agents were added to the RPMI, the plates were put back into the incubators for 18 hrs. Following 18 hrs treatment, the media was removed and the cells were washed twice with 1×PBS. Ten ml of fresh RPMI with 10% FBS was added and the cells were placed back into the incubator for 14 days. After the incubation period that will allow surviving cells to form colonies, the media was discarded and surviving colonies were stained with methylene blue. Colonies, a reflection of a single surviving cell that expanded, were counted to measure survival. All experiments were run in triplicate. Experiments were normalized to either DMSO (black asterices) or gemcitabine (red asterices).

[2] = tested on: human colon cancer cell line SW48; assay: Colony formation assay, colon cancer cell line SW48; format: cell-based; details: FIG. 17; for activity on their own against the colon cancer cells (surviving colonies): 2 μM inhibitor, 18 hr treatment, colonies after 7-14 days, normalized to DMSO
Method: (§2) The human colon cancer cell line SW48 was plated (1000 cells per plate with a ˜20% plating efficiency) in 10 cm dishes, using 10 ml of DMEM media (always with 10% FBS) per plate, and placed in a […] incubator (5% CO2) for 24 hrs. After 24 hr, each plate was treated with one or a combination of the following agents: DMSO (0.2% in solution), 3 μM 5-fluorouracil (5FU, dissolved in 1×PBS), and/or 2 μM of each Metnase/intnase inhibitor (dissolved in DMSO). When the DMSO, 5FU, and/or inhibitors were added, the plates were swirled several times to assure mixing. After agents were added to the DMEM, the plates were put back into the incubators for 18 hr. Following 18 hr treatment, the media was removed and the cells were washed twice with 1×PBS. Ten milliliters of fresh DMEM was added and the cells were placed back into the incubator for 7-14 days. After the incubation period that will allow surviving cells to grow and form colonies, media was discarded and surviving colonies were stained with methylene blue. Colonies, a reflection of a single surviving cell that expanded, were counted to measure survival. All experiments were run in triplicate. Experiments were normalized to either DMSO (black asterices) or 5FU (red asterices).

[3] = tested on: cancer cells; assay: Summary statements: cytotoxicity for cancer cells alone and with chemotherapy; format: cell-based; details: summary statement referring to figures
Method: as §1, §2
(§3) The human myeloid cell line KG-1 was grown in RPMI1640 with 10% FBS. The small cell lung cancer cell line CRL5898 was grown in HITES medium (Dulbecco's medium: Ham's F12, 50:50 mix, Insulin 0.005 mg/ml Transferrin 0.01 mg/ml Sodium selenite 30 nM Hydrocortisone 10 nM beta-estradiol 10 nM HEPES 10 mM L-glutamine 2 mM (in addition to that in the base medium)). Both cell lines were seeded at 10,000 cells/ml in the appropriate medium in 6 well plates. The Chem Div compounds were resuspended as 5 mM stock solutions in DMSO. The Chem Div compounds were added alone at 2 uM and 5 uM or in combination with VP-16 (also called etoposide) at 0.05 uM. DMSO was added to the control wells. Cells were plated and treated in triplicate and counted daily for 4 days.

[4] = tested on: human myeloid cell line KG-1; assay: Leukemia cell line KG-1 growth curve, alone or with VP-16; format: cell-based; details: for effect of compound alone on KG-1 growth, lower/low dose: lower (low) dose of compound (added at 2 uM and 5 uM); for effect of compound alone on KG-1 growth, lower/low dose / potentiation of low dose VP-16 on KG-1 growth, lower/low dose of compound / effect of compound alone on KG-1 growth, high dose / potentiation of low dose VP-16 on KG-1 growth, high dose of compound: counted daily for 4 days; for potentiation of low dose VP-16 on KG-1 growth, lower/low dose of compound: lower (low) dose of compound + VP-16 0.05 uM; for effect of compound alone on KG-1 growth, high dose: high (higher) dose of compound (added at 2 uM and 5 uM); for potentiation of low dose VP-16 on KG-1 growth, high dose of compound: high (higher) dose of compound + VP-16 0.05 uM; for KG-1 Leukemia cooperativity with VP-16 / KG-1 Leukemia potency: summary table / FIG. 34
Method: as §3

[5] = tested on: small cell lung cancer cell line CRL5898; assay: Small cell lung cancer cell line CRL5898 growth, alone or with VP-16; format: cell-based; details: for CLR5898 Small Cell Lung Cancer cooperativity with VP-16 / CLR5898 Small Cell Lung Cancer potency: summary table / FIG. 34
Method: as §3

[6] = tested on: CYP3A; details: cited from earlier work
[7] = in vivo; cited from earlier work

Row | Structure (SMILES) | potentiation of gemcitabine (surviving colonies) [1] | activity on their own against the pancreatic cancer cells (surviving colonies) [1] | activity on their own against the colon cancer cells (surviving colonies) [2] | cytotoxicity for cancer cells with chemotherapy agents (potentiation) [3] | cytotoxicity for cancer cells, compound alone [3] | effect of compound alone on KG-1 growth, lower/low dose [4] | potentiation of low dose VP-16 on KG-1 growth, lower/low dose of compound [4] | BxPC3 Pancreatic activity [1] | effect of compound alone on KG-1 growth, high dose [4] | potentiation of low dose VP-16 on KG-1 growth, high dose of compound [4] | KG-1 Leukemia cooperativity with VP-16 [4] | KG-1 Leukemia potency [4] | CLR5898 Small Cell Lung Cancer cooperativity with VP-16 [5] | CLR5898 Small Cell Lung Cancer potency [5] | potentiation of low dose VP-16 on CRL5898 cell growth ([5]; FIG. 33) | effect of compound alone on CRL5898 cell growth ([5]; FIG. 33, compared with low dose VP-16) | potentiation of 5FU (surviving colonies) ([2]; 2 μM inhibitor + 3 μM 5-fluorouracil, 18 hr, normalized to 5FU) | CYP3A induction [6] | Serum half-life [7]
1 | O=C(O)c1cc(=O)c2ccccc2o1 [R092-0025] | potentiate gemcitabine | activity on their own | activity on their own | increased the cytotoxicity of chemotherapy when added | cytotxoic for cancer cells alone |  |  |  |  |  |  |  |  |  |  |  |  |  | 
2 | O=C(O)c1ccc(N2C(=O)Nc3ccccc3N2O)cc1O [D0045-0007] | potentiate gemcitabine | activity on their own | activity on their own | increased the cytotoxicity of chemotherapy when added | cytotxoic for cancer cells alone | decreased KG-1 leukemia cell growth compared to control | potentiated the anti-proliferative effect of low dose VP-16 |  |  |  |  |  |  |  |  |  |  |  | 
3 | CCn1cc(C(=O)O)c(=O)c2cc(F)c(N3CCN(C(=O)c4ccc(OC(C)=O)cc4)CC3)cc21 [5082-2438] |  |  |  | increased the cytotoxicity of chemotherapy when added | cytotxoic for cancer cells alone | decreased KG-1 leukemia cell growth, similar to low dose VP-16 alone | potentiated the effect of low dose VP-16 and prolonged treatment resulted in cell death | weak | decreased KG-1 leukemia cell growth, similar to low dose VP-16 alone | potentiated the anti-proliferative effect of low dose VP-16 and prolonged treatment resulted in cell death | Cooperativity with VP-16 | Potency in uM | No or very | Potency in uM |  |  |  |  | 
4 | Cc1ccc(NCC(=O)Nc2cccc(C(=O)O)c2O)cc1 [8017-3379] |  |  |  |  | cytotxoic for cancer cells alone | inhibited KG-1 leukemia cell growth even more than low dose VP-16 alone | no potentiation on the effect of low dose VP-16 | inactive | inhibited KG-1 leukemia cell growth even more than low dose VP-16 alone | no potentiation on the effect of low dose VP-16 | No or very weak | Potency in uM | No or very | Potency in uM | some potentiation of the anti-proliferative effect of low dose VP-16 | inhibited cell growth of the small cell lung cancer cell line CRL5898, the same as low dose VP-16 |  |  | 
5 | CC(C)n1cc(C(=O)O)c(=O)c2ccccc21 [5483-0023] | potentiate gemcitabine | activity on their own | activity on their own | increased the cytotoxicity of chemotherapy when added | cytotxoic for cancer cells alone | decreased KG-1 leukemia cell growth, similar to low dose VP-16 | potentiated the anti-proliferative effect of low dose VP-16 | Active | decreased KG-1 leukemia cell growth especially with longer treatment | potentiated the anti-proliferative effect of low dose VP-16 | Cooperativity with VP-16 | Potency in uM | No or very | Potency in uM |  |  | potentiate 5FU |  | 
6 | COc1ccc(Cn2c(C)c(CNC(C)c3ccccc3)c(C(=O)O)c2C)cc1 (centres unmarked) [G396-1171] |  |  |  | increased the cytotoxicity of chemotherapy when added | cytotxoic for cancer cells alone | decreased KG-1 leukemia cell growth, similar to low dose VP-16 alone | potentiated the anti-proliferative effect of low dose VP-16 | inactive | decreasedKG-1 leukemia cell growth, similar to low dose VP-16 alone | potentiated the anti-proliferative effect of low dose VP-16 | Cooperativity with VP-16 | Potency in uM | No | Potency in uM |  |  |  |  | 
7 | CCn1cc(C(C)=O)c(=O)c2cc(F)c(N3CCN(C(=O)c4ccc(Cl)cc4)CC3)cc21 [5076-4170] |  |  |  | increased the cytotoxicity of chemotherapy when added | cytotxoic for cancer cells alone | slowed the growth of the leukemia cell line KG-1 and caused cell death with prolonged treatment | some potentiation on the anti-proliferative effect of low dose VP-16 | inactive | slowed the growth of the leukemia cell line KG-1 and caused cell death with prolonged treatment | some potentiation on the anti-proliferative effect of low dose VP-16 |  | High potency, probably below 1 uM. |  |  |  |  |  |  | 
8 | COc1cc2c(cc1Cc1cccc(Cl)c1F)c(=O)c(C(=O)O)cn2[C@H](CO)C(C)C [Elvitegravir, 6-[(3-chloro-2-fluorophenyl)methyl]-1-[(2S)-1-hydroxy-3-methylbutan-2-yl]-7-methoxy-4-oxoquinoline-3-carboxylic acid, reference compound] | potentiate gemcitabine | activity on their own |  |  | cytotoxic for cancer cells alone |  |  |  |  |  |  |  |  |  |  |  |  | moderate CYP3A inducer | 3 h
